Test results: patent publication US8241607B2, “Use of fructose-based compounds for the diagnosis of cancer” (priority 2005, dated 2012)
“Also recorded” adds a separate entry of the source.

Test system: PANC-1 cells
Test: Inhibition of PANC-1 proliferation by oxythiamine (MTS assay)
Type: cell-based
Conditions: oxythiamine 0.5 mM, 72 h
Protocol: FIG. 35 depicts inhibition of pancreatic cancer PANC-1 cell proliferation by incubation with the transketolase inhibitor, oxythiamine (0.5-2 mM) for 72 h in accordance with an embodiment of the present invention. Proliferative rates were measured using the MTS proliferation assay.
The inventors believe that fructose-treatment of pancreatic cancer cells led to an increase in TKK-driven nucleic acid synthesis, and thus fructose-treatment would result in an increase in either PANC-1 TKK expression and/or activity in comparison to equivalent glucose concentrations. Western blot analysis on protein lysates derived from fructose-, and glucose-treated PANC-1 cells were performed (5.5 mM fructose, and glucose for 24, and 48 h as per previous protocol) using a specific TKK antibody, and compared TKK expression in the fructose-, and glucose-treated PANC-1 cells. As depicted in FIG. 33, TKK expression at 24 h, and 48 h in protein lysates derived from 5.5 mM glucose-treated PANC-1 cells was increased in comparison to expression in 2 mM glucose-treated cells. […] After gentle mixing the absorbance of the mixture was measured at 10 min intervals for 2 h at 340 nm. Transketolase activity was then derived from the difference in absorbance at 10, and 80 minutes, and expressed as nmol/min/million cells. […] Pancreatic cancer proliferation rates were then measured using the MTS assay (FIG. 35). […]

With `Cc1ncc(C[n+]2csc(CCO)c2C)c(=O)[nH]1` [oxythiamine] the “effect on fructose-mediated increase in pancreatic cancer cell proliferation” value (5.5 mM fructose) was “virtually abolished; also recorded: almost completely abrogate” and the “effect on glucose-induced and fructose-induced PANC-1 proliferation” value was “inhibited glucose-induced and fructose-induced PANC-1 proliferation”.
